Experimental data: ChEMBL document CHEMBL2375273, “Design, synthesis and evaluation of tacrine-flurbiprofen-nitrate trihybrids as novel anti-Alzheimer's disease agents” (Bioorg Med Chem, 2013)

Key:
Cholinesterase [1] = biological target: T1, Cholinesterase (Equus caballus, UniProt P81908)
Description: Inhibition of equine serum BChE using acetylcholine as substrate preincubated for 5 mins prior to substrate addition measured after 2 mins by Ellman's method

Acetylcholinesterase [2] = biological target: T2, Acetylcholinesterase (Electrophorus electricus, UniProt O42275)
Description: Inhibition of electric eel AChE using acetylcholine as substrate preincubated for 5 mins prior to substrate addition measured after 2 mins by Ellman's method

[3] = buffer, pH 7.4, 4 h
Description: Chemical stability of the compound in phosphate buffer assessed as nitrite release after 4 hrs at pH 7.4 by Griess method

[4] = Cytotoxicity against Wistar rat primary cortical neurons at 1 uM after 24 hrs by MTT assay; format: cell-based; settings: cerebral cortex neuron
Acetylcholinesterase [5] = biological target: T2, Acetylcholinesterase; assay: Mixed-type inhibition of electric eel AChE by Lineweaver Burk reciprocal plot analysis in presence of acetylcholine
Cholinesterase [6] = biological target: T1, Cholinesterase; assay: Competitive inhibition of equine serum BChE by Lineweaver Burk reciprocal plot analysis in presence of acetylcholine

T1 sequence (P81908 whole entry): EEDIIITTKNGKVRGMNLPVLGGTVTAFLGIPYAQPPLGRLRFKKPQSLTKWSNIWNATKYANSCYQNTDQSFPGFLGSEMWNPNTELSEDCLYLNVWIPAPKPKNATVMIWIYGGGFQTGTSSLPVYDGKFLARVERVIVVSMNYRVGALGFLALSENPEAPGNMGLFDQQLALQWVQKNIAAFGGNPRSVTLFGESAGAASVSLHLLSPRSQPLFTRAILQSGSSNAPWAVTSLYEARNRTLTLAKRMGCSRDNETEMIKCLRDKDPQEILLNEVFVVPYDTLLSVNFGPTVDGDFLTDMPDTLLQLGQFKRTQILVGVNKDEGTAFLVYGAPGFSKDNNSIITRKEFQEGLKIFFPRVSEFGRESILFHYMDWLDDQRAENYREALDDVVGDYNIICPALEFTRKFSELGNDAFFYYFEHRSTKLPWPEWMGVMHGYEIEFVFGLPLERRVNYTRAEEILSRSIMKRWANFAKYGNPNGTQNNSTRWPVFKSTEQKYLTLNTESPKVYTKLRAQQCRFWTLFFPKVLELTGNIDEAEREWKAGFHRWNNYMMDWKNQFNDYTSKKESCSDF
T2 sequence (O42275 whole entry): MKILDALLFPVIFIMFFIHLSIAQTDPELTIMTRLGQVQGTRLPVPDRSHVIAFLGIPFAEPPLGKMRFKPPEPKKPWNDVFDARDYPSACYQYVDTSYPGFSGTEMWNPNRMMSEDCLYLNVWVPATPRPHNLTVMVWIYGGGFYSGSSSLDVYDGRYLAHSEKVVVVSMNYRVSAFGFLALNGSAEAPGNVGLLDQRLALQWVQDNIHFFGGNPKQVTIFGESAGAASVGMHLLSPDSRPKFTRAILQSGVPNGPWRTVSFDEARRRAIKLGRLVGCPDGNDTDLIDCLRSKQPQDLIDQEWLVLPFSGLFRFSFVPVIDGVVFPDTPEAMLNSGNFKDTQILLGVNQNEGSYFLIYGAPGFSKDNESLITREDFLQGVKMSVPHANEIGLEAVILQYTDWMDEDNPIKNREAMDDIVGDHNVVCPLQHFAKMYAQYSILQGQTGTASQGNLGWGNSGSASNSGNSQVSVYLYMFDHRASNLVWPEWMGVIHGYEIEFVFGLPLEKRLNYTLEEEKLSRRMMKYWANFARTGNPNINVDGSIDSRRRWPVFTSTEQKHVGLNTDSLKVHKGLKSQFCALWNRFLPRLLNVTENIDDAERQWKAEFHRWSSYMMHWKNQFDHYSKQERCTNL

| SMILES | IC50 (Cholinesterase [1]) [nM] | IC50 (Acetylcholinesterase [2]) [nM] | Drug metabolism [3] [µg/mL] | Activity [4] | Ki (Acetylcholinesterase [5]) [nM] | Ki (Cholinesterase [6]) [nM] |
| --- | --- | --- | --- | --- | --- | --- |
| CC(C(=O)NCCCCCCCCNc1c2c(nc3ccccc13)CCCC2)c1ccc(-c2ccc(OCCCCO[N+](=O)[O-])cc2)c(F)c1 (configuration not stated) | 1.3 | 70.9 | 0.36 | – | – | – |
| O=[N+]([O-])O[C@@H]1CO[C@H]2[C@@H]1OC[C@@H]2O [ISOSORBIDE MONONITRATE] | – | – | 0.412 | – | – | – |
| CC(C(=O)NCCCCCCNc1c2c(nc3ccccc13)CCCC2)c1ccc(-c2ccc(OCCCO[N+](=O)[O-])cc2)c(F)c1 (configuration not stated) | 2.4 | 18.7 | 0.353 | – | – | – |
| CC(C(=O)NCCCCCCNc1c2c(nc3ccccc13)CCCC2)c1ccc(-c2ccc(OCCCCCCO[N+](=O)[O-])cc2)c(F)c1 (configuration not stated) | 0.6 | 31.1 | 0.283 | Non-toxic | – | – |
| CC(C(=O)NCCCCCCCCNc1c2c(nc3ccccc13)CCCC2)c1ccc(-c2ccc(OCCCCCCO[N+](=O)[O-])cc2)c(F)c1 (configuration not stated) | 1.5 | 226 | 0.34 | – | – | – |
| CC(C(=O)NCCCCCCCCNc1c2c(nc3ccccc13)CCCC2)c1ccc(-c2ccc(OCCO[N+](=O)[O-])cc2)c(F)c1 (configuration not stated) | 1 | 12.5 | 0.565 | – | – | – |
| CC(C(=O)NCCCCCCNc1c2c(nc3ccccc13)CCCC2)c1ccc(-c2ccc(OCCCCO[N+](=O)[O-])cc2)c(F)c1 (configuration not stated) | 1.3 | 27.4 | 0.36 | – | – | – |
| CC(C(=O)NCCCCCCNc1c2c(nc3ccccc13)CCCC2)c1ccc(-c2ccccc2)c(F)c1 (configuration not stated) | 3.7 | 19.3 | – | – | – | – |
| CC(C(=O)NCCCCCCCCNc1c2c(nc3ccccc13)CCCC2)c1ccc(-c2ccccc2)c(F)c1 (configuration not stated) | 2.1 | 34.5 | – | – | – | – |
| CC(C(=O)NCCCCCCNc1c2c(nc3ccccc13)CCCC2)c1ccc(-c2ccc(OCCO[N+](=O)[O-])cc2)c(F)c1 (configuration not stated) | 2.5 | 9.1 | 0.348 | – | 16.1 | 1.7 |
| CC(C(=O)NCCCCCCCCNc1c2c(nc3ccccc13)CCCC2)c1ccc(-c2ccc(OCCCO[N+](=O)[O-])cc2)c(F)c1 (configuration not stated) | 1.6 | 30.6 | 0.353 | – | – | – |
